Assay results published in PubChem BioAssay AID2060905 (Molecular Pharmacology Branch, DTP, NCI, 2025).

System: 282377-053-R-J1-PDC complex spheroid viability
Experiment: Anticancer human tumor 282377-053-R-J1-PDC patient-derived colon adenocarcinoma cell line growth inhibition [RAS]
Conditions: for IC50: curve of first compound; for viability, T/C: stronger effect = lower value; active = viability on the fitted dose curve at most 10% of control; inactive = the rest
In short: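 Tumour cells grown as complex spheroids with HUVEC endothelial cells and mesenchymal stem cells, treated with RAS pathway inhibitor combinations. Each agent spans half-log steps from near clinical Cmax, or 10 microM where Cmax is unknown.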
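Also: spheroids exposed to agents for seven days before readout.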
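For viability, T/C in this document: luminescence viability as percent of DMSO vehicle control wells.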

CCc1c2c(nc3ccc(O)cc13)-c1cc3c(c(=O)n1C2)COC(=O)[C@]3(O)CC + CCn1c(-c2cccnc2C(C)OC)c2c3cc(ccc31)N1CCOC(CC(NC(=O)C(C(C)C)N(C)C(=O)C3(F)CCN(C(=O)C#CC(C)(C)N(C)C)CC3)C(=O)N3CCCC(N3)C(=O)OCC(C)(C)C2)C1
inactive: viability, T/C (second compound 0.000949 µM, first compound 0.000949 µM) 133% | viability, T/C (second compound 0.000949 µM, first compound 0.003 µM) 105% | viability, T/C (second compound 0.000949 µM, first compound 0.00949 µM) 161% | viability, T/C (second compound 0.000949 µM, first compound 0.03 µM) 108% | viability, T/C (second compound 0.000949 µM, first compound 0.0949 µM) 95.5% | viability, T/C (second compound 0.000949 µM, first compound 0.3 µM) 90.6% | viability, T/C (second compound 0.003 µM, first compound 0.000949 µM) 111% | viability, T/C (second compound 0.003 µM, first compound 0.003 µM) 125% | viability, T/C (second compound 0.003 µM, first compound 0.00949 µM) 131% | viability, T/C (second compound 0.003 µM, first compound 0.03 µM) 99.1% | viability, T/C (second compound 0.003 µM, first compound 0.0949 µM) 122% | viability, T/C (second compound 0.003 µM, first compound 0.3 µM) 98.8% | viability, T/C (second compound 0.00949 µM, first compound 0.000949 µM) 129% | viability, T/C (second compound 0.00949 µM, first compound 0.003 µM) 110% | viability, T/C (second compound 0.00949 µM, first compound 0.00949 µM) 142% | viability, T/C (second compound 0.00949 µM, first compound 0.03 µM) 115% | viability, T/C (second compound 0.00949 µM, first compound 0.0949 µM) 98% | viability, T/C (second compound 0.00949 µM, first compound 0.3 µM) 85.1% | viability, T/C (second compound 0.03 µM, first compound 0.000949 µM) 95% | viability, T/C (second compound 0.03 µM, first compound 0.003 µM) 115% | viability, T/C (second compound 0.03 µM, first compound 0.00949 µM) 146% | viability, T/C (second compound 0.03 µM, first compound 0.03 µM) 139% | viability, T/C (second compound 0.03 µM, first compound 0.0949 µM) 110% | viability, T/C (second compound 0.03 µM, first compound 0.3 µM) 94.4% | viability, T/C (second compound 0.0949 µM, first compound 0.000949 µM) 119% | viability, T/C (second compound 0.0949 µM, first compound 0.003 µM) 143% | viability, T/C (second compound 0.0949 µM, first compound 0.00949 µM) 163% | viability, T/C (second compound 0.0949 µM, first compound 0.03 µM) 136% | viability, T/C (second compound 0.0949 µM, first compound 0.0949 µM) 110% | viability, T/C (second compound 0.0949 µM, first compound 0.3 µM) 82.4% | viability, T/C (second compound 0.3 µM, first compound 0.000949 µM) 96.7% | viability, T/C (second compound 0.3 µM, first compound 0.003 µM) 135% | viability, T/C (second compound 0.3 µM, first compound 0.00949 µM) 149% | viability, T/C (second compound 0.3 µM, first compound 0.03 µM) 117% | viability, T/C (second compound 0.3 µM, first compound 0.0949 µM) 69.8% | viability, T/C (second compound 0.3 µM, first compound 0.3 µM) 35%
182 nM: IC50 (second compound 0.3 µM)
> 300 nM: IC50 (second compound 0.000949 µM) | IC50 (second compound 0.003 µM) | IC50 (second compound 0.00949 µM) | IC50 (second compound 0.03 µM) | IC50 (second compound 0.0949 µM)
